Reference: patent US20250020668A1, “CANCER LESION TISSUE EVALUATION FOR OPTIMIZING EFFECT OF BORON NEUTRON CAPTURE THERAPY” (3-D Matrix, Ltd., priority 2018, published 2025)

Test system: PABPc1
Assay: Immunoprecipitation with anti-BSH antibody from U251 cell crushing solution
Type: binding
Conditions: 50 μM, FIG. 2 and FIG. 3 combined
Protocol: To a cell crushing solution of a malignant brain tumor cell line U251, simple BSH (referred to BSH) (50 μM) or BSH-11R (50 μM) was added, and proteins which bind to BSH and BSH-11R were explored by immunoprecipitation with an anti-BSH antibody (10 μg).
To examine whether the binding of BSH-11R to the translation-related factors is a direct or indirect binding, a subline of malignant brain tumor cell line U251 that underwent knockdown of the translation-related factors with shRNA lentivirus was prepared. To the cell crushing solutions, BSH-11R (50 μM) was added, and translation-related factors that bind to BSH-11R were analyzed with an anti-BSH antibody (10 μg).

Substance: mercaptoundecahydrodecaborate [BSH]
- binding to PABPc1: binds to BSH in an RNA-dependent manner
